The test system of assay [1] is A549 cells expressing EGFP. Description: Cas9-RNP delivery against EGFP (gene editing, plate reader), A549. It counts as cell-based. The following applies: A549 cells. Here is the method:
To generate an EGFP expressing HeLa cell line, HeLa cells were transfected with EGFP pDNA (pEGFP-C1, Clontech) and stable transfectants were selected with 400 μg/mL of G-418 (Millipore). Green clones were selected by epifluorescence microscopy and tested for EGFP expression stability through several passages. […] All other EGFP-expressing cell lines were obtained in a similar way from parent non-EGFP-expressing cell lines.
Cells expressing EGFP were seeded in a 96 well plate the day before the experiment at a concentration of 50,000 cell/mL (100 μL/w) in DMEM+10% FBS+1% Gln-Abt. For robotic library screening, the delivery of Cas9-RNP against EGFP (RNP designed to knock-out the gene encoding for the enhanced green fluorescent protein (EGFP)) was performed. For RNP assembly, 9.2 μL of crRNA and 9.2 μL of tracrRNA were mixed in 211.6 μL of Nuclease-Free Duplex Buffer (IDT), incubated for 5 min at 95° C. and slowly cooled at rt (see I. Lostalé-Seijo, et al. Peptide/Cas9 nanostructures for ribonucleoprotein cell membrane transport and gene edition, Chem. Sci., 2017). Cas9 protein was dissolved in DMEM at a final concentration of 4 μM and equal volumes of the RNA complex and Cas9 were mixed and incubated for 5 min at rt. 75 μL of the corresponding amphiphile concentrations were added to 5 μL of RNP at 2 μM. The mixture was shaken for 30 min at room temperature before the addition to the cells. The cell medium was aspirated, and cells were washed twice with PBS. Cells were covered with 30 μL of DMEM and 20 μL of the RNP/amphiphile complexes were added to the cells (final peptide concentrations=2.5, 5 and 10 μM; final Cas9-RNP concentration=50 nM) and incubated for 4 h. After the incubation, the medium was replaced by 100 μL of fresh DMEM supplemented with 10% FBS. The total EGFP fluorescence was quantified after 72 h in a plate reader (FIG. 2, Table 1 (right) and Table 6). All experiments were done in triplicate.
Tables 1-7: RLuc (pDNA) or EGFP (mRNA) expression levels were normalized to Lipofectamine reagents (value=1) and expressed as fold-times signal increase. In the case of siRNA, the siRNA treated cells fluorescence was compared with siMOCK control fluorescence, while Cas9-RNP mediated knockout was measured against the fluorescence of untreated cells. In both siRNA and Cas9-RNP, values are expressed as % fluorescence reduction. Amphiphile concentration was 5 μM in all cases. All experiments were performed in triplicate.
Tables 26-31 show the mean (triplicates) percentage of gene editing, accounted by GFP fluorescence intensity decrease (% of reduction), measured after the transfection of Cas9-RNP by different amphiphiles at different concentrations in a variety of cell lines. Background values, accounted by untreated control cells, were subtracted for processing.

The subject of a further assay is HepG2 cells. Description: RLuc pDNA delivery, robotic library screening, HepG2. It counts as cell-based. In outline: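 After the 4 h exposure the complexes were replaced with fresh DMEM plus 10% FBS. At 72 hours cells were washed with HBSS, kept 30 minutes at 37° C. for basal readings, then given coelenterazine h (5 μM final) for 10 minutes before total luminescence was read. Triplicate means had untransfected background subtracted and were also expressed relative to Lipofectamine® 2000 set at 1.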

*: point of attachment. NHNH2 = NN*

As for “Ac-RHLK*RLK*RRLK*RL-NH2 (Ac-RHLKRLKRRLKRL-NH2; not fully specified (residues 4, 7, 11); printed as Ac-RHLK*RLK*RRLK*RL-NH2; also: linker on K* not given here) [13(Arg-His)]”, the “percentage of gene editing, GFP fluorescence intensity decrease (% of reduction)” value in assay [1] (Dodecanal, 5 μM) came out at 27%; in assay [1] (Dodecanal, 10 μM), 18%; in assay [1] (Myristoleyl, 5 μM), 5%; in assay [1] (Myristoleyl, 10 μM) it was 9%; in assay [1] (Oleyl, 5 μM), 20%; in assay [1] (Oleyl, 15 μM), 15%. The “percentage of gene editing, GFP fluorescence intensity decrease (% of reduction)” value in assay [1] (Palmitoleyl, 5 μM) amounted to 15%; in assay [1] (Palmitoleyl, 10 μM) it was 10%; in assay [1] (Palmitoleyl, 15 μM) it was 22%; in assay [1] (Petroselinyl, 5 μM), 29%. Moreover, the “mean luminescent intensity (RLuc pDNA)” value was found to be 38257 RLU with HepG2 cells (Dodecanal, 5 μM); 45978 RLU with HepG2 cells (Dodecanal, 10 μM); 15867 RLU in the assay on HepG2 cells (Dodecanal, 15 μM); 270920 RLU in the assay with HepG2 cells (Myristoleyl, 5 μM); 65274 RLU in the assay with HepG2 cells (Myristoleyl, 10 μM); 23425 RLU in the assay with HepG2 cells (Myristoleyl, 15 μM). Besides, the “mean luminescent intensity (RLuc pDNA)” value is listed as 123820 RLU in the assay with HepG2 cells (Oleyl, 5 μM); −1443 RLU with HepG2 cells (Oleyl, 15 μM); 211155 RLU in the assay on HepG2 cells (Palmitoleyl, 5 μM); 107841 RLU in the assay with HepG2 cells (Palmitoleyl, 10 μM); 24788 RLU with HepG2 cells (Palmitoleyl, 15 μM); 133806 RLU with HepG2 cells (Petroselinyl, 10 μM). In the assay with HepG2 cells (Petroselinyl, 15 μM), the “mean luminescent intensity (RLuc pDNA)” value stood at 41128 RLU.

Consider “Ac-RK*LRK*K*L-NH2 (Ac-RK(NHNH2)LRK(NHNH2)K(NHNH2)L-NH2; not fully specified; printed as Ac-RK*LRK*K*L-NH2; also: K*2,K*5,K*6: native or modified lysine (ε-amide to a linker)) [Peptide 7.3]”, for which the “percentage of gene editing, GFP fluorescence intensity decrease (% of reduction)” value in assay [1] (Dodecanal, 10 μM) is −2%; in assay [1] (Dodecanal, 15 μM), 1%; in assay [1] (Myristoleyl, 5 μM), 7%; in assay [1] (Myristoleyl, 10 μM) it was 10%; in assay [1] (Myristoleyl, 15 μM), 12%; in assay [1] (Oleyl, 5 μM), −9%. In addition, the “percentage of gene editing, GFP fluorescence intensity decrease (% of reduction)” value is recorded as −1% in assay [1] (Oleyl, 15 μM); 27% in assay [1] (Palmitoleyl, 5 μM); 33% in assay [1] (Palmitoleyl, 10 μM); 13% in assay [1] (Palmitoleyl, 15 μM); 23% in assay [1] (Petroselinyl, 5 μM); 22% in assay [1] (Petroselinyl, 10 μM). The “percentage of gene editing, GFP fluorescence intensity decrease (% of reduction)” value in assay [1] (Petroselinyl, 15 μM) was 7%. Moreover, the “mean luminescent intensity (RLuc pDNA)” value came to 4529 RLU in the assay with HepG2 cells (Dodecanal, 10 μM); 14804 RLU in the assay on HepG2 cells (Dodecanal, 15 μM); 109155 RLU in the assay on HepG2 cells (Myristoleyl, 5 μM); 294365 RLU with HepG2 cells (Myristoleyl, 10 μM); 241385 RLU with HepG2 cells (Myristoleyl, 15 μM); 107745 RLU in the assay with HepG2 cells (Palmitoleyl, 5 μM). Besides, the “mean luminescent intensity (RLuc pDNA)” value in the assay with HepG2 cells (Palmitoleyl, 10 μM) amounted to 84207 RLU; with HepG2 cells (Palmitoleyl, 15 μM), 46358 RLU; in the assay on HepG2 cells (Petroselinyl, 5 μM) it was 228306 RLU; in the assay on HepG2 cells (Petroselinyl, 10 μM) it was 150739 RLU; with HepG2 cells (Petroselinyl, 15 μM), 51938 RLU.

Regarding Ac-RRLK*RLK*RRLK*RL-NH2 [Peptide 13.3], the “percentage of gene editing, GFP fluorescence intensity decrease (% of reduction)” value was determined as 20% in assay [1] (Dodecanal, 10 μM); 21% in assay [1] (Myristoleyl, 5 μM); 33% in assay [1] (Myristoleyl, 10 μM); 62% in assay [1] (Myristoleyl, 15 μM); 14% in assay [1] (Oleyl, 10 μM); 48% in assay [1] (Oleyl, 15 μM). Moreover, the “percentage of gene editing, GFP fluorescence intensity decrease (% of reduction)” value was 33% in assay [1] (Palmitoleyl, 10 μM); 48% in assay [1] (Palmitoleyl, 15 μM); 12% in assay [1] (Petroselinyl, 5 μM); 32% in assay [1] (Petroselinyl, 10 μM); 56% in assay [1] (Petroselinyl, 15 μM). Also, the “mean luminescent intensity (RLuc pDNA)” value was 91601 RLU in the assay with HepG2 cells (Myristoleyl, 5 μM); 54569 RLU in the assay with HepG2 cells (Myristoleyl, 10 μM); 59751 RLU with HepG2 cells (Myristoleyl, 15 μM); −1067 RLU in the assay on HepG2 cells (Oleyl, 15 μM); 70999 RLU in the assay with HepG2 cells (Palmitoleyl, 5 μM); 16521 RLU with HepG2 cells (Palmitoleyl, 15 μM). Also, the “mean luminescent intensity (RLuc pDNA)” value with HepG2 cells (Petroselinyl, 5 μM) is on record as 76240 RLU.

The values above are taken from patent US20250304623A1, “PEPTIDES FOR INTRACELLULAR DELIVERY” (UNIVERSIDADE DE SANTIAGO DE COMPOSTELA, priority 2022, published 2025).
